Experimental data: patent US20240368145A1, “METHODS FOR TREATING CANCER” (IMMUNIC AG, priority 2021, published 2024)
One block for each compound: values may come before it.

Tests used:
Format in all cases: cell-based
KLK3 mRNA = assay: Expression of AR target genes (qRT-PCR) in 22Rv1: KLK3; settings: 22Rv1, 1 μM, 48h; relative to vehicle control (DMSO)
Method: (§1) The prostate cancer cell line 22Rv1 was treated for 48h with 1 μM Example compound 1, 1/1, 2/1, 2/2, 2/3, 2/4, 2/5, 2/6, 2/7, 2/8, 2/9 and 2/10 and reference compounds SR2211 and XY018. RNA was extracted using the RNA isolation kit XS (Macherey-Nagel) and following the manufacture's manual. RNA quantity was measured with the Nanodrop before reverse transcription using Superscript II (Invitrogen #100004925). For the quantitative real-time PCR with SYBR-Green (Qiagen #204074), the following primers were used:
(§2) qRT-PCR was performed using SYBR-Green (Qiagen #204074) reagents in a PCR cycler (Gorbett Research) Rotor Gene RG3000 with the following program: denaturation for 5′ at 95° C.; 40 cycles of 20″ at 95° C. and 15″ at 60° C.″ and at the end of the last cycle, the melting temperature of the products was determined by gradually increasing from 60° C. to 99° C. CT values from all samples were normalized to reference (housekeeping) genes using the mean CT value of the GAPDH and YWHAZ (reference genes). Next the values are put relative to the untreated control (vehicle/DMSO).

NKX3.1 mRNA = assay: Expression of AR target genes (qRT-PCR) in 22Rv1: NKX3.1; settings: Homo sapiens; 22Rv1, 1 μM, 48h; relative to vehicle control (DMSO)
Method: as §1, §2

ATAD2/ANCCA mRNA = assay: Expression of AR target genes (qRT-PCR) in 22Rv1: ATAD2/ANCCA; settings: 22Rv1, 1 μM, 48h; relative to vehicle control (DMSO)
Method: as §1, §2

CCRFCEM (ALL) = assay: Oncotest inhibition of viability, CCRFCEM; settings: Homo sapiens, CCRF-CEM; ALL cell line CCRFCEM; read-out: IC50 range
MOLT4 (ALL) = assay: Oncotest inhibition of viability, MOLT4; settings: Homo sapiens, MOLT-4; ALL cell line MOLT4; read-out: IC50 range
HL60 (AML) = assay: Oncotest inhibition of viability, HL60; settings: Homo sapiens, HL-60; AML cell line HL60; read-out: IC50 range
KG1 (AML) = assay: Oncotest inhibition of viability, KG1; settings: AML cell line KG1; read-out: IC50 range
PL21 (AML) = assay: Oncotest inhibition of viability, PL21; settings: PL-21; AML cell line PL21; read-out: IC50 range
EM2 (CML) = assay: Oncotest inhibition of viability, EM2; settings: CML cell line EM2; read-out: IC50 range
JURLMK1 (CML) = assay: Oncotest inhibition of viability, JURLMK1; settings: CML cell line JURLMK1; read-out: IC50 range
K562 (CML) = assay: Oncotest inhibition of viability, K562; settings: Homo sapiens; CML cell line K562; read-out: IC50 range
KCL22 (CML) = assay: Oncotest inhibition of viability, KCL22; settings: Homo sapiens, KCL-22; CML cell line KCL22; read-out: IC50 range
MEG01 (CML) = assay: Oncotest inhibition of viability, MEG01; settings: Homo sapiens, MEG-01; CML cell line MEG01; read-out: IC50 range
MYLA (NHL) = assay: Oncotest inhibition of viability, MYLA; settings: NHL cell line MYLA; read-out: IC50 range
U937 (NHL) = assay: Oncotest inhibition of viability, U937; settings: Homo sapiens, U-937; NHL cell line U937; read-out: IC50 range
RPMI8226 (MM) = assay: Oncotest inhibition of viability, RPMI8226; settings: Homo sapiens, RPMI-8226; MM cell line RPMI8226; read-out: IC50 range
L363 (MM) = assay: Oncotest inhibition of viability, L363; settings: Homo sapiens, L-363; MM cell line L363; read-out: IC50 range
IM9 (MM) = assay: Oncotest inhibition of viability, IM9; settings: MM cell line IM9; read-out: IC50 range
LP1 (MM) = assay: Oncotest inhibition of viability, LP1; settings: MM cell line LP1; read-out: IC50 range
NCIH929 (MM) = assay: Oncotest inhibition of viability, NCIH929; settings: Homo sapiens, NCI-H929; MM cell line NCIH929; read-out: IC50 range
[1] = Viability and differentiation in different solid cancer cell lines; settings: range over HEK293, A2780, MT3, MCF7, NCIH460, A-375, HCT15, HT1080
[2] = test system: more than 75 representative cancer cell lines; assay: Oncolead profiling in a panel of more than 75 cancer cell lines; settings: FIG. 1 and FIG. 2
Method: The compound of Example 1 and Example 1/1 was tested in vitro in more than 75 representative cancer cell lines at Oncolead (www.oncolead.com) according their standard procedure. The obtained data is summarised in FIG. 1 (Example 1) and FIG. 2 (Example 1/1).

AML cell line HL-60 = assay: CellTiter-Blue proliferation assay, HL-60; settings: Homo sapiens, geometric mean relative IC50, 72 hours, read-out: IC50 range for cell line HL-60
Method: (§3) Aim of this study was to evaluate compounds of Example 1, 1/1, 2/2, 2/5 and 2/6 in a proliferation assays. The 5 test compounds were tested in a CellTiter-Blue® based proliferation assay in three AML cell lines (HL-60, THP-1 and MOLM-13). The compounds were tested at 10 concentrations in half-log increments (highest concentration 30 μM or 100 μM) in duplicates. The incubation period with the applied compounds was fixed to 72 hours.

AML cell line MOLM-13 = assay: CellTiter-Blue proliferation assay, MOLM-13; settings: Homo sapiens, geometric mean relative IC50, 72 hours, read-out: IC50 range for cell line MOLM-13
Method: as §3

AML cell line THP-1 = assay: CellTiter-Blue proliferation assay, THP-1; settings: Homo sapiens, geometric mean relative IC50, 72 hours, read-out: IC50 range for cell line THP-1
Method: as §3

Structure (SMILES): CC(C)(O)CCn1ncc(-c2onc(-c3c(F)cccc3Cl)c2-c2ncccn2)c1C(F)(F)F [2/8]
KLK3 mRNA expression (KLK3 mRNA): 1.152
mrna remaining at 1 µM (NKX3.1 mRNA): 29.3%
ATAD2/ANCCA mRNA expression (ATAD2/ANCCA mRNA): 0.817

IC50 (CCRFCEM (ALL)): 10 to 100 nM
IC50 (MOLT4 (ALL)): < 10 nM
IC50 (HL60 (AML)): < 10 nM
IC50 (K562 (CML)): ≥ 1000 nM
IC50 (U937 (NHL)): 10 to 100 nM
IC50 (RPMI8226 (MM)): < 10 nM
IC50 [1]: 1 to 25 nM
IC50 (AML cell line HL-60): < 10 nM
IC50 (AML cell line MOLM-13): < 10 nM
IC50 (AML cell line THP-1): 10 to 100 nM
Structure (SMILES): COC(=O)c1c(-c2c(F)cccc2Cl)noc1-c1cnn(-c2cccc(Cl)c2)c1C(F)(F)F [Example 1, Methyl 3-(2-chloro-6-fluorophenyl)-5-(1-(3-chlorophenyl)-5-(trifluoromethyl)-1H-pyrazol-4-yl)isoxazole-4-carboxylate]
IC50 (KG1 (AML)): < 10 nM
IC50 (PL21 (AML)): 100 to 1000 nM
IC50 (EM2 (CML)): 10 to 100 nM
IC50 (JURLMK1 (CML)): < 10 nM
IC50 (KCL22 (CML)): 10 to 100 nM
IC50 (MEG01 (CML)): ≥ 1000 nM
IC50 (MYLA (NHL)): 100 to 1000 nM
IC50 (L363 (MM)): < 10 nM
IC50 (IM9 (MM)): < 10 nM
IC50 (LP1 (MM)): 10 to 100 nM
IC50 (NCIH929 (MM)): < 10 nM
in vitro anticancer activity (Z-score panel, words) [2]: exhibits an in vitro anticancer activity towards a broad spectrum of therapeutic cancer indication

IC50 [1]: 1 to 25 nM
IC50 (AML cell line HL-60): < 10 nM
IC50 (AML cell line MOLM-13): < 10 nM
IC50 (AML cell line THP-1): < 10 nM
Structure (SMILES): Fc1cccc(Cl)c1-c1noc(-c2cnn(-c3cccc(Cl)c3)c2C(F)(F)F)c1-c1nccs1 [Example 1/1]
in vitro anticancer activity (Z-score panel, words) [2]: exhibits an in vitro anticancer activity towards a broad spectrum of therapeutic cancer indication
